In US11498899B2, “Nitrone herbicides” (FMC Corporation, priority 2016, dated 2022):

What was measured:
[1] = system: barnyardgrass (Echinochloa crus-galli); assay: Test A preemergence, visual injury rating 0-100 (0 no effect, 100 complete control); type: in vivo
Description: (§1) Seeds of plant species selected from barnyardgrass (Echinochloa crus-galli), kochia (Kochia scoparia), ragweed (common ragweed, Ambrosia elatior), ryegrass, Italian (Italian ryegrass, Lolium multiflorum), foxtail, giant (giant foxtail, Setaria faberii), foxtail, green (green foxtail, Setaria viridis), and pigweed (Amaranthus retroflexus) were planted into a blend of loam soil and sand and treated preemergence with a directed soil spray using test chemicals formulated in a non-phytotoxic solvent mixture which included a surfactant.
(§2) At the same time, plants selected from these weed species and also wheat (Triticum aestivum), corn (Zea mays), blackgrass (Alopecurus myosuroides), and galium (catchweed bedstraw, Galium aparine) were planted in pots containing the same blend of loam soil and sand and treated with postemergence applications of test chemicals formulated in the same manner. Plants ranged in height from 2 to 10 cm and were in the one- to two-leaf stage for the postemergence treatment. Treated plants and untreated controls were maintained in a greenhouse for approximately 10 days, after which time all treated plants were compared to untreated controls and visually evaluated for injury. […] A dash (-) response means no test result.

[2] = system: foxtail, giant (giant foxtail, Setaria faberii); assay: Test A preemergence, visual injury rating 0-100; type: in vivo
Description: as §1, §2

[3] = system: kochia (Kochia scoparia); assay: Test A preemergence, visual injury rating 0-100; type: in vivo
Description: as §1, §2

[4] = system: pigweed (Amaranthus retroflexus); assay: Test A preemergence, visual injury rating 0-100; type: in vivo
Description: as §1, §2

[5] = system: ragweed (common ragweed, Ambrosia elatior); assay: Test A preemergence, visual injury rating 0-100; type: in vivo
Description: as §1, §2

[6] = system: ryegrass, Italian (Italian ryegrass, Lolium multiflorum); assay: Test A preemergence, visual injury rating 0-100; type: in vivo
Description: as §1, §2

[7] = system: barnyardgrass (Echinochloa crus-galli); assay: Test A postemergence, visual injury rating 0-100; type: in vivo; conditions: 0 to 100 scale
Description: as §1, §2

[8] = system: blackgrass (Alopecurus myosuroides); assay: Test A postemergence, visual injury rating 0-100; type: in vivo; conditions: 0 to 100 scale
Description: as §1, §2

[9] = system: corn (Zea mays); assay: Test A postemergence, visual injury rating 0-100; type: in vivo; conditions: 0 to 100 scale
Description: as §1, §2

[10] = system: foxtail, giant (giant foxtail, Setaria faberii); assay: Test A postemergence, visual injury rating 0-100; type: in vivo; conditions: 0 to 100 scale
Description: as §1, §2

[11] = system: galium (catchweed bedstraw, Galium aparine); assay: Test A postemergence, visual injury rating 0-100; type: in vivo; conditions: 0 to 100 scale
Description: as §1, §2

[12] = system: kochia (Kochia scoparia); assay: Test A postemergence, visual injury rating 0-100; type: in vivo; conditions: 0 to 100 scale
Description: as §1, §2

[13] = system: pigweed (Amaranthus retroflexus); assay: Test A postemergence, visual injury rating 0-100; type: in vivo; conditions: 0 to 100 scale
Description: as §1, §2

[14] = system: ragweed (common ragweed, Ambrosia elatior); assay: Test A postemergence, visual injury rating 0-100; type: in vivo; conditions: 0 to 100 scale
Description: as §1, §2

[15] = system: ryegrass, Italian (Italian ryegrass, Lolium multiflorum); assay: Test A postemergence, visual injury rating 0-100; type: in vivo; conditions: 0 to 100 scale
Description: as §1, §2

[16] = system: wheat (Triticum aestivum); assay: Test A postemergence, visual injury rating 0-100; type: in vivo; conditions: 0 to 100 scale
Description: as §1, §2

[17] = system: ducksalad (Heteranthera limosa); assay: Test B flooded paddy test, visual rating 0-100; conditions: Flood, 250 g ai/ha, applied to paddy water, rated after 13 to 15 days
[18] = system: barnyardgrass (Echinochloa crus-galli); assay: Test B flooded paddy test, visual rating 0-100; conditions: Flood, 250 g ai/ha, applied to paddy water, rated after 13 to 15 days
[19] = system: rice (Oryza sativa); assay: Test B flooded paddy test, visual rating 0-100 (0 no effect, 100 complete control); conditions: Flood, 250 g ai/ha, applied to paddy water, rated after 13 to 15 days

| SMILES | Barnyardgrass plant response rating (0 to 100 scale) ([1]; 125 g ai/ha) | Foxtail, Giant plant response rating (0 to 100 scale) ([2]; 125 g ai/ha) | Kochia plant response rating (0 to 100 scale) ([3]; 125 g ai/ha) | Pigweed plant response rating (0 to 100 scale) ([4]; 125 g ai/ha) | Ragweed plant response rating (0 to 100 scale) ([5]; 125 g ai/ha) | Barnyardgrass plant response rating ([7]; 125 g ai/ha) | Barnyardgrass plant response rating ([7]; 500 g ai/ha) | Blackgrass plant response rating ([8]; 125 g ai/ha) | Blackgrass plant response rating ([8]; 500 g ai/ha) | Corn plant response rating ([9]; 125 g ai/ha) | Corn plant response rating ([9]; 500 g ai/ha) | Foxtail, Giant plant response rating ([10]; 125 g ai/ha) | Foxtail, Giant plant response rating ([10]; 500 g ai/ha) | Galium plant response rating ([11]; 125 g ai/ha) | Galium plant response rating ([11]; 500 g ai/ha) | Kochia plant response rating ([12]; 125 g ai/ha) | Kochia plant response rating ([12]; 500 g ai/ha) | Pigweed plant response rating ([13]; 125 g ai/ha) | Pigweed plant response rating ([13]; 500 g ai/ha) | Ragweed plant response rating ([14]; 500 g ai/ha) | further results |
| --- | --- | --- | --- | --- | --- | --- | --- | --- | --- | --- | --- | --- | --- | --- | --- | --- | --- | --- | --- | --- | --- |
| CC1=[N+]([O-])C(C(=O)Nc2cccc(F)c2F)C(c2cccc(Cl)c2)C1 (racemic) [Compound 3] | 100 | 100 | 30 | 20 | 30 | 80 | 90 | 30 | 80 | 40 | 90 | 80 | 90 | 60 | 70 | 20 | 60 | 0 | 20 | 50 | Barnyardgrass plant response rating ([1]; 500 g ai/ha, 0 to 100 scale): 100; Foxtail, Giant plant response rating ([2]; 500 g ai/ha, 0 to 100 scale): 100; Kochia plant response rating ([3]; 500 g ai/ha, 0 to 100 scale): 90; Pigweed plant response rating ([4]; 500 g ai/ha, 0 to 100 scale): 70; Ragweed plant response rating ([5]; 500 g ai/ha, 0 to 100 scale): 70; Ryegrass, Italian plant response rating (0 to 100 scale) ([6]; 125 g ai/ha): 20; Ryegrass, Italian plant response rating ([6]; 500 g ai/ha, 0 to 100 scale): 50; Ryegrass, Italian plant response rating ([15]; 125 g ai/ha): 0; Ryegrass, Italian plant response rating ([15]; 500 g ai/ha): 70; Wheat plant response rating ([16]; 125 g ai/ha): 30; Wheat plant response rating ([16]; 500 g ai/ha): 80; Ducksalad plant response rating (0 to 100 scale) [17]: 100; Barnyardgrass plant response rating (0 to 100 scale) [18]: 80; Rice plant response rating (0 to 100 scale) [19]: 0 |
| CC1=[N+]([O-])C(C(=O)Nc2cccc(F)c2F)C(c2cc(F)ccc2C)C1 (racemic) [Compound 81] | 90 | 60 | 0 | 0 | 0 | 80 | 80 | 0 | 50 | 20 | 20 | 60 | 80 | 0 | 30 | 0 | 0 | 0 | 0 | 0 | Barnyardgrass plant response rating (0 to 100 scale) ([1]; 500 g ai/ha): 90; Foxtail, Giant plant response rating (0 to 100 scale) ([2]; 500 g ai/ha): 90; Kochia plant response rating (0 to 100 scale) ([3]; 500 g ai/ha): 50; Pigweed plant response rating (0 to 100 scale) ([4]; 500 g ai/ha): 20; Ragweed plant response rating (0 to 100 scale) ([5]; 500 g ai/ha): 0; Ryegrass, Italian plant response rating (0 to 100 scale) ([6]; 125 g ai/ha): 0; Ryegrass, Italian plant response rating (0 to 100 scale) ([6]; 500 g ai/ha): 10; Ragweed plant response rating ([14]; 125 g ai/ha): 0; Ryegrass, Italian plant response rating ([15]; 125 g ai/ha): 0; Ryegrass, Italian plant response rating ([15]; 500 g ai/ha): 20; Wheat plant response rating ([16]; 125 g ai/ha): 0; Wheat plant response rating ([16]; 500 g ai/ha): 30; Ducksalad plant response rating (0 to 100 scale) [17]: 100; Barnyardgrass plant response rating (0 to 100 scale) [18]: 25; Rice plant response rating (0 to 100 scale) [19]: 0 |
| CC1=[N+]([O-])C(C(=O)Nc2cccc(F)c2F)C(c2ccc(F)c(Oc3ncc(F)cn3)c2)C1 (racemic) [Compound 52] | 90 | 80 | 0 | 0 | 0 | 30 | 70 | 30 | 70 | 0 | 70 | 0 | 90 | 20 | 70 | 0 | 20 | 0 | 0 | 30 | Barnyardgrass plant response rating (0 to 100 scale) ([1]; 500 g ai/ha): 100; Foxtail, Giant plant response rating (0 to 100 scale) ([2]; 500 g ai/ha): 100; Kochia plant response rating (0 to 100 scale) ([3]; 500 g ai/ha): 20; Pigweed plant response rating (0 to 100 scale) ([4]; 500 g ai/ha): 70; Ragweed plant response rating (0 to 100 scale) ([5]; 500 g ai/ha): 60; Ryegrass, Italian plant response rating (0 to 100 scale) ([6]; 125 g ai/ha): 80; Ryegrass, Italian plant response rating (0 to 100 scale) ([6]; 500 g ai/ha): 90; Ragweed plant response rating ([14]; 125 g ai/ha): 0; Ryegrass, Italian plant response rating ([15]; 125 g ai/ha): 20; Ryegrass, Italian plant response rating ([15]; 500 g ai/ha): 60; Wheat plant response rating ([16]; 125 g ai/ha): 10; Wheat plant response rating ([16]; 500 g ai/ha): 70; Ducksalad plant response rating (0 to 100 scale) [17]: 0; Barnyardgrass plant response rating (0 to 100 scale) [18]: 0; Rice plant response rating (0 to 100 scale) [19]: 0 |
| CCOc1cc(OC)cc(C2CC(C)=[N+]([O-])C2C(=O)Nc2cccc(F)c2F)c1 (racemic) [Compound 116] | 80 | 90 | 0 | 0 | 0 | 50 | 80 | 80 | 80 | 30 | 60 | 60 | 90 | 0 | 20 | 0 | 20 | 0 | 0 | 0 | Barnyardgrass plant response rating (0 to 100 scale) ([1]; 500 g ai/ha): 90; Foxtail, Giant plant response rating (0 to 100 scale) ([2]; 500 g ai/ha): 90; Kochia plant response rating (0 to 100 scale) ([3]; 500 g ai/ha): 0; Pigweed plant response rating (0 to 100 scale) ([4]; 500 g ai/ha): 0; Ragweed plant response rating (0 to 100 scale) ([5]; 500 g ai/ha): 0; Ryegrass, Italian plant response rating (0 to 100 scale) ([6]; 500 g ai/ha): 80; Ragweed plant response rating ([14]; 125 g ai/ha): 0; Ryegrass, Italian plant response rating ([15]; 125 g ai/ha): 0; Ryegrass, Italian plant response rating ([15]; 500 g ai/ha): 80; Wheat plant response rating ([16]; 125 g ai/ha): 20; Wheat plant response rating ([16]; 500 g ai/ha): 70; Ducksalad plant response rating (0 to 100 scale) [17]: 0; Barnyardgrass plant response rating (0 to 100 scale) [18]: 0; Rice plant response rating (0 to 100 scale) [19]: 0 |
